Assay results reported in PubChem BioAssay (NCI).
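Growth conditions: 96-well plates. Treatment: test compound, 48 hours, 5 concentrations. Analysis: linear interpolation between bracketing concentrations; unreached endpoints set to highest concentration. TGI denotes the concentration required for complete inhibition of growth.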

Legend:
Assay in all cases: NCI tumour cell line growth inhibition, 48 h
DU-145 prostate = tested on: DU-145 prostate
COLO 205 colon = tested on: COLO 205 colon
SN12C renal = tested on: SN12C renal
A549 NSCLC = tested on: A549 NSCLC
EKVX NSCLC = tested on: EKVX NSCLC
LOX IMVI melanoma = tested on: LOX IMVI melanoma
CAKI-1 renal = tested on: CAKI-1 renal
MALME-3M melanoma = tested on: MALME-3M melanoma
NCI/ADR-RES ovarian = tested on: NCI/ADR-RES ovarian
HOP-92 NSCLC = tested on: HOP-92 NSCLC
U251 CNS = tested on: U251 CNS
SR leukemia = tested on: SR leukemia
UO-31 renal = tested on: UO-31 renal
OVCAR-3 ovarian = tested on: OVCAR-3 ovarian
TK-10 renal = tested on: TK-10 renal
NCI-H23 lung = tested on: NCI-H23 lung
786-0 renal = tested on: 786-0 renal
UACC-62 melanoma = tested on: UACC-62 melanoma
SK-MEL-5 melanoma = tested on: SK-MEL-5 melanoma
NCI-H226 lung = tested on: NCI-H226 lung
MDA-N = tested on: MDA-N
RPMI-8226 leukemia = tested on: RPMI-8226 leukemia
HL-60(TB) leukemia = tested on: HL-60(TB) leukemia
RXF 393 renal = tested on: RXF 393 renal
MCF7 breast = tested on: MCF7 breast
SNB-75 CNS = tested on: SNB-75 CNS
A498 renal = tested on: A498 renal
OVCAR-4 ovarian = tested on: OVCAR-4 ovarian
MDA-MB-231 breast = tested on: MDA-MB-231 breast
HT29 colon = tested on: HT29 colon
SNB-19 CNS = tested on: SNB-19 CNS
HS 578T breast = tested on: HS 578T breast
MDA-MB-435 = tested on: MDA-MB-435
SF-295 CNS = tested on: SF-295 CNS
PC-3 prostate = tested on: PC-3 prostate
NCI-H522 lung = tested on: NCI-H522 lung
SF-268 CNS = tested on: SF-268 CNS
M14 melanoma = tested on: M14 melanoma
SK-MEL-2 melanoma = tested on: SK-MEL-2 melanoma
SK-MEL-28 melanoma = tested on: SK-MEL-28 melanoma
HCC-2998 colon = tested on: HCC-2998 colon
UACC-257 melanoma = tested on: UACC-257 melanoma
KM12 colon = tested on: KM12 colon
T-47D breast = tested on: T-47D breast
HCT-116 colon = tested on: HCT-116 colon
HCT-15 colon = tested on: HCT-15 colon
HOP-62 NSCLC = tested on: HOP-62 NSCLC
IGROV1 ovarian = tested on: IGROV1 ovarian
SK-OV-3 ovarian = tested on: SK-OV-3 ovarian
OVCAR-8 ovarian = tested on: OVCAR-8 ovarian
ACHN renal = tested on: ACHN renal
SW-620 colon = tested on: SW-620 colon
BT-549 breast = tested on: BT-549 breast
CCRF-CEM leukemia = tested on: CCRF-CEM leukemia
NCI-H460 lung = tested on: NCI-H460 lung
OVCAR-5 ovarian = tested on: OVCAR-5 ovarian
K-562 leukemia = tested on: K-562 leukemia
SF-539 CNS = tested on: SF-539 CNS

Structure (SMILES): S=C1NCN2CCN(CC2)CNC(=S)C(=S)NCN2CCN(CC2)CNC1=S
- TGI (DU-145 prostate): > 100 µM
- TGI (COLO 205 colon): > 100 µM
- TGI (SN12C renal): > 100 µM
- TGI (A549 NSCLC): > 100 µM
- TGI (EKVX NSCLC): > 100 µM
- TGI (LOX IMVI melanoma): 56.4 µM
- TGI (CAKI-1 renal): > 100 µM
- TGI (MALME-3M melanoma): > 100 µM
- TGI (NCI/ADR-RES ovarian): > 100 µM
- TGI (HOP-92 NSCLC): > 100 µM
- TGI (U251 CNS): > 100 µM
- TGI (SR leukemia): > 100 µM
- TGI (UO-31 renal): > 100 µM
- TGI (OVCAR-3 ovarian): 98.9 µM
- TGI (TK-10 renal): > 100 µM
- TGI (NCI-H23 lung): > 100 µM
- TGI (786-0 renal): > 100 µM
- TGI (UACC-62 melanoma): > 100 µM
- TGI (SK-MEL-5 melanoma): > 100 µM
- TGI (NCI-H226 lung): > 100 µM
- TGI (MDA-N): > 100 µM
- TGI (RPMI-8226 leukemia): 97.3 µM
- TGI (HL-60(TB) leukemia): > 100 µM
- TGI (RXF 393 renal): > 100 µM
- TGI (MCF7 breast): > 100 µM
- TGI (SNB-75 CNS): > 100 µM
- TGI (A498 renal): > 100 µM
- TGI (OVCAR-4 ovarian): > 100 µM
- TGI (MDA-MB-231 breast): > 100 µM
- TGI (HT29 colon): > 100 µM
- TGI (SNB-19 CNS): > 100 µM
- TGI (HS 578T breast): > 100 µM
- TGI (MDA-MB-435): > 100 µM
- TGI (SF-295 CNS): > 100 µM
- TGI (PC-3 prostate): > 100 µM
- TGI (NCI-H522 lung): > 100 µM
- TGI (SF-268 CNS): > 100 µM
- TGI (M14 melanoma): > 100 µM
- TGI (SK-MEL-2 melanoma): > 100 µM
- TGI (SK-MEL-28 melanoma): > 100 µM
- TGI (HCC-2998 colon): > 100 µM
- TGI (UACC-257 melanoma): > 100 µM
- TGI (KM12 colon): > 100 µM
- TGI (T-47D breast): > 100 µM
- TGI (HCT-116 colon): > 100 µM
- TGI (HCT-15 colon): > 100 µM
- TGI (HOP-62 NSCLC): > 100 µM
- TGI (IGROV1 ovarian): > 100 µM
- TGI (SK-OV-3 ovarian): > 100 µM
- TGI (OVCAR-8 ovarian): > 100 µM
- TGI (ACHN renal): > 100 µM
- TGI (SW-620 colon): > 100 µM
- TGI (BT-549 breast): > 100 µM
- TGI (CCRF-CEM leukemia): 62.3 µM
- TGI (NCI-H460 lung): 46.3 µM
- TGI (OVCAR-5 ovarian): > 100 µM
- TGI (K-562 leukemia): > 100 µM

Structure (SMILES): COc1ccc(C=Nc2c(O)ccc3ccccc23)cc1OC
- TGI (DU-145 prostate): > 100 µM
- TGI (COLO 205 colon): > 100 µM
- TGI (SN12C renal): > 100 µM
- TGI (A549 NSCLC): > 100 µM
- TGI (EKVX NSCLC): > 100 µM
- TGI (LOX IMVI melanoma): > 100 µM
- TGI (CAKI-1 renal): > 100 µM
- TGI (MALME-3M melanoma): 41.2 µM
- TGI (NCI/ADR-RES ovarian): > 100 µM
- TGI (HOP-92 NSCLC): 59 µM
- TGI (U251 CNS): > 100 µM
- TGI (SR leukemia): > 100 µM
- TGI (UO-31 renal): > 100 µM
- TGI (OVCAR-3 ovarian): 70.9 µM
- TGI (TK-10 renal): > 100 µM
- TGI (NCI-H23 lung): > 100 µM
- TGI (SF-539 CNS): > 100 µM
- TGI (786-0 renal): > 100 µM
- TGI (UACC-62 melanoma): > 100 µM
- TGI (SK-MEL-5 melanoma): > 100 µM
- TGI (NCI-H226 lung): > 100 µM
- TGI (MDA-N): 35.1 µM
- TGI (RPMI-8226 leukemia): > 100 µM
- TGI (HL-60(TB) leukemia): > 100 µM
- TGI (RXF 393 renal): > 100 µM
- TGI (MCF7 breast): > 100 µM
- TGI (SNB-75 CNS): > 100 µM
- TGI (A498 renal): > 100 µM
- TGI (OVCAR-4 ovarian): > 100 µM
- TGI (MDA-MB-231 breast): > 100 µM
- TGI (HT29 colon): > 100 µM
- TGI (SNB-19 CNS): > 100 µM
- TGI (HS 578T breast): > 100 µM
- TGI (MDA-MB-435): 33.4 µM
- TGI (SF-295 CNS): > 100 µM
- TGI (PC-3 prostate): > 100 µM
- TGI (NCI-H522 lung): 64.2 µM
- TGI (SF-268 CNS): > 100 µM
- TGI (M14 melanoma): > 100 µM
- TGI (SK-MEL-2 melanoma): > 100 µM
- TGI (SK-MEL-28 melanoma): > 100 µM
- TGI (HCC-2998 colon): > 100 µM
- TGI (UACC-257 melanoma): > 100 µM
- TGI (KM12 colon): > 100 µM
- TGI (T-47D breast): > 100 µM
- TGI (HCT-116 colon): > 100 µM
- TGI (HCT-15 colon): > 100 µM
- TGI (HOP-62 NSCLC): > 100 µM
- TGI (IGROV1 ovarian): > 100 µM
- TGI (SK-OV-3 ovarian): > 100 µM
- TGI (OVCAR-8 ovarian): > 100 µM
- TGI (ACHN renal): > 100 µM
- TGI (SW-620 colon): > 100 µM
- TGI (BT-549 breast): > 100 µM
- TGI (CCRF-CEM leukemia): > 100 µM
- TGI (NCI-H460 lung): > 100 µM
- TGI (OVCAR-5 ovarian): > 100 µM
- TGI (K-562 leukemia): > 100 µM
